Data: PubChem BioAssay (NCI)
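Abbreviation: GI50, concentration required for 50% inhibition of growth. TGI is the concentration that stops growth completely.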

Experiments:
Test in all cases: DTP human tumour cell line panel, 384-well format
786-0 renal = system: 786-0 renal
A498 renal = system: A498 renal
A549 NSCLC = system: A549 NSCLC
ACHN renal = system: ACHN renal
BT-549 breast = system: BT-549 breast
CAKI-1 renal = system: CAKI-1 renal
CCRF-CEM leukemia = system: CCRF-CEM leukemia
COLO 205 colon = system: COLO 205 colon
DU-145 prostate = system: DU-145 prostate
EKVX NSCLC = system: EKVX NSCLC
HCC-2998 colon = system: HCC-2998 colon
HCT-116 colon = system: HCT-116 colon
HCT-15 colon = system: HCT-15 colon
HL-60(TB) leukemia = system: HL-60(TB) leukemia
HOP-62 NSCLC = system: HOP-62 NSCLC
HOP-92 NSCLC = system: HOP-92 NSCLC
HS 578T breast = system: HS 578T breast
HT29 colon = system: HT29 colon
IGROV1 ovarian = system: IGROV1 ovarian
K-562 leukemia = system: K-562 leukemia
KM12 colon = system: KM12 colon
LOX IMVI melanoma = system: LOX IMVI melanoma
M14 melanoma = system: M14 melanoma
MALME-3M melanoma = system: MALME-3M melanoma
MCF7 breast = system: MCF7 breast
MDA-MB-231 breast = system: MDA-MB-231 breast
MDA-MB-435 melanoma = system: MDA-MB-435 melanoma
MDA-MB-468 breast = system: MDA-MB-468 breast
MOLT-4 leukemia = system: MOLT-4 leukemia
NCI-H226 lung = system: NCI-H226 lung
NCI-H23 lung = system: NCI-H23 lung
NCI-H322M lung = system: NCI-H322M lung
NCI-H460 NSCLC = system: NCI-H460 NSCLC
NCI-H522 lung = system: NCI-H522 lung
NCI/ADR-RES ovarian = system: NCI/ADR-RES ovarian
OVCAR-3 ovarian = system: OVCAR-3 ovarian
OVCAR-4 ovarian = system: OVCAR-4 ovarian
OVCAR-5 ovarian = system: OVCAR-5 ovarian
OVCAR-8 ovarian = system: OVCAR-8 ovarian
PC-3 prostate = system: PC-3 prostate
RPMI-8226 leukemia = system: RPMI-8226 leukemia
RXF 393 renal = system: RXF 393 renal
SF-268 CNS = system: SF-268 CNS
SF-295 CNS = system: SF-295 CNS
SF-539 CNS = system: SF-539 CNS
SK-MEL-28 melanoma = system: SK-MEL-28 melanoma
SK-MEL-5 melanoma = system: SK-MEL-5 melanoma
SK-OV-3 ovarian = system: SK-OV-3 ovarian
SN12C renal = system: SN12C renal
SNB-19 CNS = system: SNB-19 CNS
SNB-75 CNS = system: SNB-75 CNS
SW-620 colon = system: SW-620 colon
T-47D breast = system: T-47D breast
TK-10 renal = system: TK-10 renal
U251 glioblastoma = system: U251 glioblastoma
UACC-62 melanoma = system: UACC-62 melanoma
UO-31 renal = system: UO-31 renal

Cn1ccc(S(=O)(=O)N2CCC[C@H](Nc3nccc(-c4c(-c5cccc(O)c5)nc5occn45)n3)C2)n1
GI50 ([…]-0 renal): 7.2 µM | TGI (786-0 renal): 32.5 µM | GI50 (A498 renal): 3.82 µM | TGI (A498 renal): 17.2 µM | GI50 (A549 NSCLC): 11.9 µM | TGI (A549 NSCLC): 25.2 µM | GI50 (ACHN renal): 7.99 µM | TGI (ACHN renal): 35.8 µM | GI50 (BT-549 breast): 7.47 µM | TGI (BT-549 breast): 21.8 µM | GI50 (CAKI-1 renal): 4.38 µM | TGI (CAKI-1 renal): 19.3 µM | GI50 (CCRF-CEM leukemia): 2.32 µM | TGI (CCRF-CEM leukemia): 4.7 µM | GI50 (COLO 205 colon): < 0.01 µM | TGI (COLO 205 colon): 20.2 µM | GI50 (DU-145 prostate): 14.4 µM | TGI (DU-145 prostate): 33.8 µM | GI50 (EKVX NSCLC): 4.71 µM | TGI (EKVX NSCLC): 17.5 µM | GI50 (HCC-2998 colon): 4.05 µM | TGI (HCC-2998 colon): 11.2 µM | GI50 (HCT-116 colon): 3.59 µM | TGI (HCT-116 colon): 16.4 µM | GI50 (HCT-15 colon): 14.2 µM | TGI (HCT-15 colon): 35.7 µM | GI50 (HL-60(TB) leukemia): 8.06 µM | TGI (HL-60(TB) leukemia): 20.1 µM | GI50 (HOP-62 NSCLC): 10.4 µM | TGI (HOP-62 NSCLC): 30.7 µM | GI50 (HOP-92 NSCLC): 5.55 µM | TGI (HOP-92 NSCLC): 26.4 µM | GI50 (HS 578T breast): 3.33 µM | TGI (HS 578T breast): 15.8 µM | GI50 (HT29 colon): 0.325 µM | TGI (HT29 colon): 13.7 µM | GI50 (IGROV1 ovarian): 4.14 µM | TGI (IGROV1 ovarian): 17 µM | GI50 (K-562 leukemia): 7.07 µM | TGI (K-562 leukemia): 41.4 µM | GI50 (KM12 colon): 15.1 µM | TGI (KM12 colon): 35.5 µM | GI50 (LOX IMVI melanoma): 1.24 µM | TGI (LOX IMVI melanoma): 2.83 µM | GI50 (M14 melanoma): < 0.01 µM | TGI (M14 melanoma): 1.15 µM | GI50 (MALME-3M melanoma): < 0.01 µM | GI50 (MCF7 breast): 6.67 µM | TGI (MCF7 breast): 19.9 µM | GI50 (MDA-MB-231 breast): 2.04 µM | TGI (MDA-MB-231 breast): 23.6 µM | GI50 (MDA-MB-435 melanoma): 0.0187 µM | TGI (MDA-MB-435 melanoma): 21.5 µM | GI50 (MDA-MB-468 breast): 5.59 µM | TGI (MDA-MB-468 breast): 18.5 µM | GI50 (MOLT-4 leukemia): 5.62 µM | TGI (MOLT-4 leukemia): 17.1 µM | GI50 (NCI-H226 lung): 11.2 µM | TGI (NCI-H226 lung): 37.8 µM | GI50 (NCI-H23 lung): 3.95 µM | TGI (NCI-H23 lung): 17.8 µM | GI50 (NCI-H322M lung): 10.1 µM | TGI (NCI-H322M lung): 35.9 µM | GI50 (NCI-H460 NSCLC): 12.1 µM | TGI (NCI-H460 NSCLC): 26.3 µM | GI50 (NCI-H522 lung): 15.1 µM | TGI (NCI-H522 lung): 29.5 µM | GI50 (NCI/ADR-RES ovarian): > 100 µM | TGI (NCI/ADR-RES ovarian): > 100 µM | GI50 (OVCAR-3 ovarian): 6.66 µM | TGI (OVCAR-3 ovarian): 19.2 µM | GI50 (OVCAR-4 ovarian): 20.2 µM | TGI (OVCAR-4 ovarian): 46 µM | GI50 (OVCAR-5 ovarian): 11.9 µM | TGI (OVCAR-5 ovarian): 38.4 µM | GI50 (OVCAR-8 ovarian): 13.3 µM | TGI (OVCAR-8 ovarian): 36.9 µM | GI50 (PC-3 prostate): 8.79 µM | TGI (PC-3 prostate): 34 µM | GI50 (RPMI-8226 leukemia): 10.5 µM | TGI (RPMI-8226 leukemia): 22.4 µM | GI50 (RXF 393 renal): 5.61 µM | TGI (RXF 393 renal): 19.2 µM | GI50 (SF-268 CNS): 3.65 µM | TGI (SF-268 CNS): 13.8 µM | GI50 (SF-295 CNS): 20.2 µM | TGI (SF-295 CNS): 43.5 µM | GI50 (SF-539 CNS): 12.6 µM | TGI (SF-539 CNS): 25.5 µM | GI50 (SK-MEL-28 melanoma): < 0.01 µM | TGI (SK-MEL-28 melanoma): 0.602 µM | GI50 (SK-MEL-5 melanoma): 0.0669 µM | TGI (SK-MEL-5 melanoma): 14 µM | GI50 (SK-OV-3 ovarian): 6.83 µM | TGI (SK-OV-3 ovarian): 23.6 µM | GI50 (SN12C renal): 8.01 µM | TGI (SN12C renal): 30.7 µM | GI50 (SNB-19 CNS): 27.1 µM | TGI (SNB-19 CNS): > 100 µM | GI50 (SNB-75 CNS): 4.98 µM | TGI (SNB-75 CNS): 31.7 µM | GI50 (SW-620 colon): 11.6 µM | TGI (SW-620 colon): 25.5 µM | GI50 (T-47D breast): 11.1 µM | TGI (T-47D breast): 23.4 µM | GI50 (TK-10 renal): 11.3 µM | TGI (TK-10 renal): 48.2 µM | GI50 (U251 glioblastoma): 12.2 µM | TGI (U251 glioblastoma): 26.5 µM | GI50 (UACC-62 melanoma): < 0.01 µM | GI50 (UO-31 renal): 1.64 µM | TGI (UO-31 renal): 22 µM
